target: human NaV1.8 ion channel (Homo sapiens (Human), UniProt Q9Y5Y9); test: Compound inhibition activity on human NaV1.8 ion channel in HEK293 cells (whole-cell patch clamp); format: cell-based; details: 100 nm concentration; HEK293 cells, resting protocol; read-out: Inhibition ratio of Nav1.8 (Activity of inhibition)
Description: Test Case 1: Compound Inhibition Activity on Human NaV1.8 Ion Channel in HEK293 Cells
The final concentrations of the test compounds are prepared on the same day and then dissolved in extracellular solution. […] The intracellular solution (mM) contains: Aspartic acid, 140; MgCl2, 2; EGTA 11; HEPES, 10; pH 7.2 (CsOH titration). All test solutions contain 1 μM TTX.
The test solution are stored at a concentration of 3 mM in dimethyl sulfoxide (DMSO). The solutions will be dissolved in extracellular solution on the day of testing and prepared to the required concentration.
All experiments were performed at room temperature. Each cell itself is taken as the corresponding control.
At least one cell is tested per concentration.
HEK293 cell steady expressing NaV1.8 ion channel.
The intracellular fluid (mM) contains: Aspartic acid, 140; MgCl2, 2; EGTA 11; HEPES, 10; pH 7.2 (CsOH titration). […] Electrodes are drawn with PC-10 (Narishige, Japan). Recording is performed with whole-cell diaphragm clamp.
The cells are clamped at −80 mV and then depolarized to 10 mV with a sustained 10 ms square wave to give a Nav1.8 current. This procedure is repeated every 5 seconds.

Chain of human NaV1.8 ion channel (Q9Y5Y9 whole entry): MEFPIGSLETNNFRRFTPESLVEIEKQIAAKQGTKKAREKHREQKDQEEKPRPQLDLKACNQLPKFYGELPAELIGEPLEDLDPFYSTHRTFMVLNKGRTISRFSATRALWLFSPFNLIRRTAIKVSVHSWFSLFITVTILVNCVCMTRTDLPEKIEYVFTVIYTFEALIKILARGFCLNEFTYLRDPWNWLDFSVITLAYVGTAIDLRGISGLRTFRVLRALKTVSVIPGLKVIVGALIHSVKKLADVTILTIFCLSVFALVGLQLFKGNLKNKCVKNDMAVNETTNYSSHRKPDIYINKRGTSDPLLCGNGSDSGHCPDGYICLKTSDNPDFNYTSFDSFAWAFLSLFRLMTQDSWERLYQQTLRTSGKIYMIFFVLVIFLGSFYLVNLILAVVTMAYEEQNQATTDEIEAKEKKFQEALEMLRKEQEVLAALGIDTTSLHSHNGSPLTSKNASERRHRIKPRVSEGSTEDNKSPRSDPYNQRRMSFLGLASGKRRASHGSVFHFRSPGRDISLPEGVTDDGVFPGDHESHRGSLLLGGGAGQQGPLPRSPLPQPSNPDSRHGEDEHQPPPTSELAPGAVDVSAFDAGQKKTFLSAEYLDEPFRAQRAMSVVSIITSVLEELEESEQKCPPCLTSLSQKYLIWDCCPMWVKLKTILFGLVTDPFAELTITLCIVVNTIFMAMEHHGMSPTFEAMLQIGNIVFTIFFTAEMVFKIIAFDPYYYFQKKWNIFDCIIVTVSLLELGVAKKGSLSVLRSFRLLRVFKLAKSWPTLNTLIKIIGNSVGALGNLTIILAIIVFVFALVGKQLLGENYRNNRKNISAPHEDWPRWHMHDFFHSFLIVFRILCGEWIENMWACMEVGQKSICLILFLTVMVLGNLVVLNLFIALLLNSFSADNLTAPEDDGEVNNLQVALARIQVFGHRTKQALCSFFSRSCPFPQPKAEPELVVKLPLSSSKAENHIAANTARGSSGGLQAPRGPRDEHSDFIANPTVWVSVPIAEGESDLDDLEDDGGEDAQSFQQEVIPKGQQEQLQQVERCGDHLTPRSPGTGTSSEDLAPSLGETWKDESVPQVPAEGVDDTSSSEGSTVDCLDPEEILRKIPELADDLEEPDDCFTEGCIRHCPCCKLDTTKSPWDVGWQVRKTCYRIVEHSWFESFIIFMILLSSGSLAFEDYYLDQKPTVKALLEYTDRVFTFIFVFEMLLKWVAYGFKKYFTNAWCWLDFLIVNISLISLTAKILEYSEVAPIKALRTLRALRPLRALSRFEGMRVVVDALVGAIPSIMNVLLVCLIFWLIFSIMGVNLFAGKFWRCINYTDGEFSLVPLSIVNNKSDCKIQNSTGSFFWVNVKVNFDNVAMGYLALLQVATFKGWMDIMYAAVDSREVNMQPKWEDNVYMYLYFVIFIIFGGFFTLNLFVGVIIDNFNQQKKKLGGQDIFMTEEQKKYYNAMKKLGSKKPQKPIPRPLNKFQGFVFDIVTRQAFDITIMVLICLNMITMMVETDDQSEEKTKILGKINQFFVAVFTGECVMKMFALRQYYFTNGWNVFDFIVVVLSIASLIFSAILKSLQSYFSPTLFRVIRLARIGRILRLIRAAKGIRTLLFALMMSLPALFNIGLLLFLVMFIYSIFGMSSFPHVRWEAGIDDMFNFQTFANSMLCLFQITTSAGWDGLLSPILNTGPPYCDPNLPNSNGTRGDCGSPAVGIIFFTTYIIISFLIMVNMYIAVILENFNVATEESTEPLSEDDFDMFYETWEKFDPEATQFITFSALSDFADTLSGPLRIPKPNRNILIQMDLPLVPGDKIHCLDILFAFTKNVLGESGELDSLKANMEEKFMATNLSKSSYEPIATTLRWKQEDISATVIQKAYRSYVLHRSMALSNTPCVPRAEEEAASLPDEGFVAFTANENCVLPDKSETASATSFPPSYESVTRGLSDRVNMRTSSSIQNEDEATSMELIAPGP

Compound	inhibition at 0.1 µM
Cc1cc(F)ccc1Oc1ccc(C(F)(F)F)cc1C(=O)Nc1ccc(F)c(C(C)C(N)=O)c1 (stereo not drawn) [Example 27, N-(3-(1-Amino-1-oxopropan-2-yl)-4-fluorophenyl)-2-(4-fluoro-2-methylphenoxy)-5-(trifluoromethyl) benzamide]	> 80%
Cc1cc(F)ccc1Oc1cc(C2CC2)c(C(F)(F)F)cc1C(=O)Nc1ccc(F)c(C(C)CCO)c1 (stereo not drawn) [Example 28, 4-cyclopropyl-2-(4-fluoro-2-methylphenoxy)-N-(4-fluoro-3-(4-hydroxybutan-2-yl)phenyl)-5-(trifluoromethyl) benzamide]	20 to 50%
Cc1cc(F)ccc1Oc1cc(C2CC2)c(C(F)(F)F)cc1C(=O)Nc1ccc(F)c(C(C)CCN)c1 (stereo not drawn) [Example 29, N-(3-(4-Aminobutan-2-yl)-4-fluorophenyl)-4-cyclopropyl-2-(4-fluoro-2-methylphenoxy)-5-(trifluoromethyl) benzamide]	50 to 80%
Cc1cc(F)ccc1Oc1cc(C2CC2)c(C(F)(F)F)cc1C(=O)Nc1ccc(F)c(C(C)CN)c1 (stereo not drawn) [Example 30, N-(3-(1-aminopropyl-2-yl)-4-fluorophenyl)-4-cyclopropyl-2-(4-fluoro-2-methylphenoxy)-5-(trifluoromethyl) benzamide]	50 to 80%
Cc1cc(F)ccc1Oc1cc(C2CC2)c(C(F)(F)F)cc1C(=O)Nc1ccc(F)c(C(F)CCO)c1 (stereo not drawn) [Example 31, 4-Cyclopropyl-2-(4-fluoro-2-methylphenoxy)-N-(4-fluoro-3-(1-fluoro-3-hydroxypropyl)phenyl)-5-(trifluoromethyl) benzamide]	50 to 80%
Cc1cc(F)ccc1Oc1cc(C2CC2)c(C(F)(F)F)cc1C(=O)Nc1ccc(F)c(C(F)(F)CCO)c1 [Example 32, 4-Cyclopropyl-N-(3-(1,1-difluoro-3-hydroxypropyl)-4-fluorophenyl)-2-(4-fluoro-2-methylphenoxy)-5-(trifluoromethyl) benzamide]	20 to 50%
Cc1cc(F)ccc1Oc1cc(C2CC2)c(C(F)(F)F)cc1C(=O)Nc1ccc(F)c(C(F)(F)C(=O)NCCO)c1 [Example 33, 4-Cyclopropyl-N-(3-(1,1-difluoro-2-((2-hydroxyethyl)amino)-2-oxoethyl)-4-fluorophenyl)-2-(4-fluoro-2-methylphenoxy)-5-(trifluoromethyl) benzamide]	< 20%
Cc1cc(F)ccc1Oc1cc(C2CC2)c(C(F)(F)F)cc1C(=O)Nc1ccc(F)c(OCCN)c1 [Example 34, N-(3-(2-aminoethoxy)-4-fluorophenyl)-4-cyclopropyl-2-(4-fluoro-2-methylphenoxy)-5-(trifluoromethyl) benzamide]	50 to 80%
Cc1cc(F)ccc1Oc1cc(C2CC2)c(C(F)(F)F)cc1C(=O)Nc1ccnc(C(N)CC(N)=O)c1 (stereo not drawn) [Example 35]	> 80%
Cc1cc(F)ccc1Oc1cc(C2CC2)c(C(F)(F)F)cc1C(=O)Nc1ccc(F)c(C(N)CC(N)=O)c1 (stereo not drawn) [Example 37]	> 80%
Cc1cc(F)ccc1Oc1cc(C(F)(F)F)ccc1C(=O)Nc1ccc(F)c(C(N)CC(N)=O)c1 (stereo not drawn) [Example 39]	> 80%
Cc1cc(F)ccc1Oc1ccc(C(F)(F)F)cc1C(=O)Nc1ccnc(CN)c1 [Example 40]	50 to 80%
Cc1cc(F)ccc1Oc1cc(C(F)(F)F)ccc1C(=O)Nc1ccc(F)c(C(N)C(N)=O)c1 (stereo not drawn) [Example 41]	> 80%
CNC(=O)C(N)c1cc(NC(=O)c2ccc(C(F)(F)F)cc2Oc2ccc(F)cc2C)ccc1F (stereo not drawn) [Example 42]	> 80%
Cc1cc(F)ccc1Oc1cc(C2CC2)c(C(F)(F)F)cc1C(=O)Nc1ccc(F)c(C(N)C(=O)NCCO)c1 (stereo not drawn) [Example 43]	50 to 80%
COCCNC(=O)C(N)c1cc(NC(=O)c2cc(C(F)(F)F)c(C3CC3)cc2Oc2ccc(F)cc2C)ccc1F (stereo not drawn) [Example 44]	50 to 80%

same assay, conditions: 100 nm concentration; HEK293 cells, resting protocol; read-out: Inhibition ratio of compounds against Nav1.8 (Activity of inhibition)

Compound	inhibition at 0.1 µM
Cc1cc(F)ccc1Oc1cc(C2CC2)c(C(F)(F)F)cc1C(=O)Nc1ccc(F)c(C(N)CC(C)N)c1 (stereo not drawn) [Example 46, 4-Cyclopropyl-N-(3-(1,3-diaminobutyl)-4-fluorophenyl)-2-(4-fluoro-2-methylphenoxy)-5-(trifluoromethyl) benzamide]	> 80%
Cc1cc(F)ccc1Oc1cc(C2CC2)c(C(F)(F)F)cc1C(=O)Nc1ccc(F)c(C(F)CN)c1 (stereo not drawn) [Example 47, N-(3-(2-Amino-1-fluoroethyl)-4-fluorophenyl)-4-cyclopropyl-2-(4-fluoro-2-methylphenoxy)-5-(trifluoromethyl) benzamide]	50 to 80%
Cc1cc(F)ccc1Oc1cc(C2CC2)c(C(F)(F)F)cc1C(=O)Nc1ccc(F)c(C(C)CC(N)=O)c1 (stereo not drawn) [Example 48, N-(3-(4-Amino-4-oxobutan-2-yl)-4-fluorophenyl)-4-cyclopropyl-2-(4-fluoro-2-methylphenoxy)-5-(trifluoromethyl) benzamide]	> 80%
Cc1cc(F)ccc1Oc1cc(C2CC2)c(C(F)(F)F)cc1C(=O)Nc1ccc(F)c(C(CCO)n2ccnc2)c1 (stereo not drawn) [Example 49, 4-Cyclopropyl-2-(4-fluoro-2-methylphenoxy)-N-(4-fluoro-3-(3-hydroxy-1-(1H-imidazol-1-yl)propyl)phenyl)-5-(trifluoromethyl) benzamide]	50 to 80%
Cc1cc(F)ccc1Oc1cc(C2CC2)c(C(F)(F)F)cc1C(=O)Nc1ccc(F)c(C2CCNC(=O)CN2)c1 (stereo not drawn) [Example 50]	20 to 50%
Cc1cc(F)ccc1Oc1cc(C2CC2)c(C(F)(F)F)cc1C(=O)Nc1ccc(F)c(C2CCNC(=O)N2)c1 (stereo not drawn) [Example 51, 4-Cyclopropyl-2-(4-fluoro-2-methylphenoxy)-N-(4-fluoro-3-(2-oxohexahydropyrimidin-4-yl)phenyl)-5-(trifluoromethyl) benzamide]	> 80%
Cc1cc(F)ccc1Oc1cc(C2CC2)c(C(F)(F)F)cc1C(=O)Nc1ccc(F)c(N)c1 [Example 52, N-(3-Amino-4-fluorophenyl)-4-cyclopropyl-2-(4-fluoro-2-methylphenoxy)-5-(trifluoromethyl) benzamide]	50 to 80%
Cc1cc(F)ccc1Oc1cc(C2CC2)c(C(F)(F)F)cc1C(=O)Nc1ccc(F)c(C(C)CC(N)C(F)(F)F)c1 (stereo not drawn) [Example 53, N-(3-(4-Amino-5,5,5-trifluoropentan-2-yl)-4-fluorophenyl)-4-cyclopropyl-2-(4-fluoro-2-methylphenoxy)-5-(trifluoromethyl) benzamide]	< 20%
Cc1cc(F)ccc1Oc1cc(C2CC2)c(C(F)(F)F)cc1C(=O)Nc1ccc(F)c(C(C)CC(O)CNC(C)(C)C)c1 (stereo not drawn) [Example 54, N-(3-(5-(tert-butylamino)-4-hydroxypentan-2-yl)-4-fluorophenyl)-4-cyclopropyl-2-(4-fluoro-2-methylphenoxy)-5-(trifluoromethyl) benzamide]	50 to 80%
Cc1cc(F)ccc1Oc1cc(C2CC2)c(C(F)(F)F)cc1C(=O)Nc1ccc(F)c(C(C)C(O)CNC(C)(C)C)c1 (stereo not drawn) [Example 55, N-(3-(4-(tert-butylamino)-3-hydroxybutan-2-yl)-4-fluorophenyl)-4-cyclopropyl-2-(4-fluoro-2-methylphenoxy)-5-(trifluoromethyl) benzamide]	> 80%
Cc1cc(F)ccc1Oc1cc(C2CC2)c(C(F)(F)F)cc1C(=O)Nc1ccc(F)c(O)c1 [Example 56, 4-cyclopropyl-2-(4-fluoro-2-methylphenoxy)-N-(4-fluoro-3-hydroxyphenyl)-5-(trifluoromethyl) benzamide]	50 to 80%

— patent US20230303497A1, “BENZYLAMINE OR BENZYL ALCOHOL DERIVATIVE AND USES THEREOF” (CHENGDU HYPERWAY PHARMACEUTICALS CO., LTD, priority 2020, published 2023)
